Data as given in PubChem BioAssay AID1963825 (Molecular Pharmacology Branch, DTP, NCI, 2024).
pIC50: −log10 of the molar value.

Experiment: Anticancer human tumor 997537-175-T-J1-PDC patient-derived colon adenocarcinoma cell line growth inhibition [POLQ]
Settings: 997537-175-T-J1-PDC complex spheroid viability, combination with POLQ inhibitors; for pIC50: curve of first compound; for viability, T/C: stronger effect = lower value
How it was run: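 Three-cell-type spheroids modelling solid tumor plus stroma served as the readout system; POL inhibitors were tested individually and in combination, concentration ranges set by clinical Cmax where known.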

[1] = second compound 0.0316 µM, first compound 0.00316 µM
[2] = second compound 0.0316 µM, first compound 0.01 µM
[3] = second compound 0.0316 µM, first compound 0.0316 µM
[4] = second compound 0.0316 µM, first compound 0.1 µM
[5] = second compound 0.0316 µM, first compound 0.316 µM
[6] = second compound 0.0316 µM, first compound 1 µM
[7] = second compound 0.1 µM, first compound 0.00316 µM
[8] = second compound 0.1 µM, first compound 0.01 µM
[9] = second compound 0.1 µM, first compound 0.0316 µM
[10] = second compound 0.1 µM, first compound 0.1 µM
[11] = second compound 0.1 µM, first compound 0.316 µM
[12] = second compound 0.1 µM, first compound 1 µM
[13] = second compound 0.316 µM, first compound 0.00316 µM
[14] = second compound 0.316 µM, first compound 0.01 µM
[15] = second compound 0.316 µM, first compound 0.0316 µM
[16] = second compound 0.316 µM, first compound 0.1 µM
[17] = second compound 0.316 µM, first compound 0.316 µM
[18] = second compound 0.316 µM, first compound 1 µM
[19] = second compound 1 µM, first compound 0.00316 µM
[20] = second compound 1 µM, first compound 0.01 µM
[21] = second compound 1 µM, first compound 0.0316 µM
[22] = second compound 1 µM, first compound 0.1 µM
[23] = second compound 1 µM, first compound 0.316 µM
[24] = second compound 1 µM, first compound 1 µM
[25] = second compound 3.16 µM, first compound 0.00316 µM
[26] = second compound 3.16 µM, first compound 0.01 µM
[27] = second compound 3.16 µM, first compound 0.0316 µM
[28] = second compound 3.16 µM, first compound 0.1 µM
[29] = second compound 3.16 µM, first compound 0.316 µM
[30] = second compound 3.16 µM, first compound 1 µM
[31] = second compound 10 µM, first compound 0.00316 µM
[32] = second compound 10 µM, first compound 0.01 µM
[33] = second compound 10 µM, first compound 0.0316 µM
[34] = second compound 10 µM, first compound 0.1 µM
[35] = second compound 10 µM, first compound 0.316 µM
[36] = second compound 10 µM, first compound 1 µM
[37] = second compound 0.0316 µM, first compound 3.16 µM
[38] = second compound 0.0316 µM, first compound 10 µM
[39] = second compound 0.1 µM, first compound 3.16 µM
[40] = second compound 0.1 µM, first compound 10 µM
[41] = second compound 0.316 µM, first compound 3.16 µM
[42] = second compound 0.316 µM, first compound 10 µM
[43] = second compound 1 µM, first compound 3.16 µM
[44] = second compound 1 µM, first compound 10 µM
[45] = second compound 3.16 µM, first compound 3.16 µM
[46] = second compound 3.16 µM, first compound 10 µM
[47] = second compound 10 µM, first compound 3.16 µM
[48] = second compound 10 µM, first compound 10 µM
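Note: luminescence signal used as a surrogate for viable cells; spheroids exposed to drugs for seven days before readout.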

C=CCn1c(=O)c2cnc(Nc3ccc(N4CCN(C)CC4)cc3)nc2n1-c1cccc(C(C)(C)O)n1 + Nc1ccc(C#CCN(C(=O)Cc2ncc(C(F)(F)F)cc2C(F)(F)F)c2ccc(F)cc2)nn1
pIC50 (second compound 0.0316 µM): < 6.00 | pIC50 (second compound 0.1 µM): < 6.00 | pIC50 (second compound 0.316 µM): < 6.00 | pIC50 (second compound 1 µM): < 6.00 | pIC50 (second compound 3.16 µM): < 6.00 | pIC50 (second compound 10 µM): < 6.00 | viability, T/C [1]: 92.5% | viability, T/C [2]: 99.7% | viability, T/C [3]: 89.3% | viability, T/C [4]: 97.9% | viability, T/C [5]: 89.8% | viability, T/C [6]: 50.6% | viability, T/C [7]: 95.9% | viability, T/C [8]: 96.8% | viability, T/C [9]: 94.4% | viability, T/C [10]: 95.1% | viability, T/C [11]: 98.4% | viability, T/C [12]: 73% | viability, T/C [13]: 92.6% | viability, T/C [14]: 97.3% | viability, T/C [15]: 90.8% | viability, T/C [16]: 82% | viability, T/C [17]: 76.3% | viability, T/C [18]: 55.1% | viability, T/C [19]: 88.3% | viability, T/C [20]: 104% | viability, T/C [21]: 94.4% | viability, T/C [22]: 84.5% | viability, T/C [23]: 92.9% | viability, T/C [24]: 62.2% | viability, T/C [25]: 81.3% | viability, T/C [26]: 93.7% | viability, T/C [27]: 94.8% | viability, T/C [28]: 94.3% | viability, T/C [29]: 106% | viability, T/C [30]: 55.1% | viability, T/C [31]: 96.5% | viability, T/C [32]: 85.5% | viability, T/C [33]: 87.6% | viability, T/C [34]: 80.9% | viability, T/C [35]: 97.4% | viability, T/C [36]: 72.9%

CCc1c2c(nc3ccc(O)cc13)-c1cc3c(c(=O)n1C2)COC(=O)[C@]3(O)CC + Nc1ccc(C#CCN(C(=O)Cc2ncc(C(F)(F)F)cc2C(F)(F)F)c2ccc(F)cc2)nn1
pIC50 (second compound 0.0316 µM): 7.60 | pIC50 (second compound 0.1 µM): 7.81 | pIC50 (second compound 0.316 µM): 7.53 | pIC50 (second compound 1 µM): 7.70 | pIC50 (second compound 3.16 µM): 7.66 | pIC50 (second compound 10 µM): 7.79 | viability, T/C [1]: 89.5% | viability, T/C [2]: 91.4% | viability, T/C [3]: 39.2% | viability, T/C [4]: 19% | viability, T/C [5]: 6.65% | viability, T/C [6]: 10.3% | viability, T/C [7]: 89.9% | viability, T/C [8]: 60.1% | viability, T/C [9]: 32.7% | viability, T/C [10]: 20.1% | viability, T/C [11]: 6.93% | viability, T/C [12]: 6.26% | viability, T/C [13]: 79.8% | viability, T/C [14]: 65.1% | viability, T/C [15]: 51.6% | viability, T/C [16]: 19.6% | viability, T/C [17]: 6.57% | viability, T/C [18]: 10.8% | viability, T/C [19]: 83.5% | viability, T/C [20]: 70.4% | viability, T/C [21]: 33.9% | viability, T/C [22]: 22.8% | viability, T/C [23]: 5.79% | viability, T/C [24]: 5.67% | viability, T/C [25]: 74.1% | viability, T/C [26]: 66.7% | viability, T/C [27]: 42% | viability, T/C [28]: 16.7% | viability, T/C [29]: 7.19% | viability, T/C [30]: 6.33% | viability, T/C [31]: 76.5% | viability, T/C [32]: 65.5% | viability, T/C [33]: 29% | viability, T/C [34]: 17.8% | viability, T/C [35]: 9.23% | viability, T/C [36]: 3.78%

Nc1ccn(C2OC(CO)C(O)C2(F)F)c(=O)n1 (stereo not drawn) + Nc1ccc(C#CCN(C(=O)Cc2ncc(C(F)(F)F)cc2C(F)(F)F)c2ccc(F)cc2)nn1
pIC50 (second compound 0.0316 µM): < 5.00 | pIC50 (second compound 0.1 µM): < 5.00 | pIC50 (second compound 0.316 µM): < 5.00 | pIC50 (second compound 1 µM): < 5.00 | pIC50 (second compound 3.16 µM): < 5.00 | pIC50 (second compound 10 µM): < 5.00 | viability, T/C [3]: 92.5% | viability, T/C [4]: 100% | viability, T/C [5]: 87.8% | viability, T/C [6]: 89.5% | viability, T/C [37]: 80.7% | viability, T/C [38]: 72.5% | viability, T/C [9]: 109% | viability, T/C [10]: 108% | viability, T/C [11]: 101% | viability, T/C [12]: 68.2% | viability, T/C [39]: 67.9% | viability, T/C [40]: 47.3% | viability, T/C [15]: 97.9% | viability, T/C [16]: 102% | viability, T/C [17]: 81.8% | viability, T/C [18]: 92.9% | viability, T/C [41]: 92% | viability, T/C [42]: 66.2% | viability, T/C [21]: 102% | viability, T/C [22]: 99.6% | viability, T/C [23]: 84% | viability, T/C [24]: 74.4% | viability, T/C [43]: 88.7% | viability, T/C [44]: 77.5% | viability, T/C [27]: 100% | viability, T/C [28]: 105% | viability, T/C [29]: 84.7% | viability, T/C [30]: 83.8% | viability, T/C [45]: 70.8% | viability, T/C [46]: 84.5% | viability, T/C [33]: 102% | viability, T/C [34]: 113% | viability, T/C [35]: 89% | viability, T/C [36]: 94.1% | viability, T/C [47]: 89.7% | viability, T/C [48]: 74.2%

O=C(c1cc(Cc2n[nH]c(=O)c3ccccc23)ccc1F)N1CCN(C(=O)C2CC2)CC1 + Nc1ccc(C#CCN(C(=O)Cc2ncc(C(F)(F)F)cc2C(F)(F)F)c2ccc(F)cc2)nn1
pIC50 (second compound 0.0316 µM): < 5.00 | pIC50 (second compound 0.1 µM): < 5.00 | pIC50 (second compound 0.316 µM): < 5.00 | pIC50 (second compound 1 µM): < 5.00 | pIC50 (second compound 3.16 µM): < 5.00 | pIC50 (second compound 10 µM): < 5.00 | viability, T/C [3]: 108% | viability, T/C [4]: 104% | viability, T/C [5]: 100% | viability, T/C [6]: 99.9% | viability, T/C [37]: 95.3% | viability, T/C [38]: 82% | viability, T/C [9]: 108% | viability, T/C [10]: 103% | viability, T/C [11]: 94.4% | viability, T/C [12]: 93.7% | viability, T/C [39]: 84.6% | viability, T/C [40]: 94.8% | viability, T/C [15]: 106% | viability, T/C [16]: 111% | viability, T/C [17]: 104% | viability, T/C [18]: 98.3% | viability, T/C [41]: 93.5% | viability, T/C [42]: 98.9% | viability, T/C [21]: 104% | viability, T/C [22]: 98.2% | viability, T/C [23]: 103% | viability, T/C [24]: 104% | viability, T/C [43]: 93.2% | viability, T/C [44]: 99.3% | viability, T/C [27]: 96.7% | viability, T/C [28]: 94.4% | viability, T/C [29]: 98.8% | viability, T/C [30]: 90.1% | viability, T/C [45]: 98.5% | viability, T/C [46]: 95.3% | viability, T/C [33]: 108% | viability, T/C [34]: 103% | viability, T/C [35]: 97.3% | viability, T/C [36]: 91.3% | viability, T/C [47]: 112% | viability, T/C [48]: 98.9%
